{"source": "paper PMC13401508", "about": "(Pharmacological research, 2026)", "key": {"[1]": {"tested_on": "Salmonella typhimurium TA98 & TA100", "assay": "Mini-Ames assay", "format": "cell-based", "details": "with or without S9 mix", "procedure": "The mini-AMES assay was performed in Pharmaron, Inc. following the standard protocol as developed by the in-house scientist. […] The assay was conducted in the presence or absence of the S9 mix along with concurrent negative/solvent control and positive controls."}, "CXCL5 [2]": {"tested_on": "CXCL5", "assay": "Secreted CXCL5 by ELISA in HS5 conditioned media", "format": "cell-based, human", "details": "PDGF-AA activated HS5 cells, 24 hrs", "procedure": "Human and mouse specific CXCL5, PDGF-AA ELISA kits were obtained from R&D Systems, USA. All ELISAs were performed using the manufacturer’s protocol.\n(§1) Fig. 3. […] CXCL5 mRNA expression was measured by qRT-PCR. […] Secreted CXCL5 in CM was measured by ELISA (n = 3 ± SD; * p < 0.05). […] CXCL5 mRNA expression was measured by qRT-PCR (n = 3 ± SD; * p < 0.05)."}, "CXCL5 [3]": {"tested_on": "CXCL5", "assay": "CXCL5 mRNA by qRT-PCR in HS5 cells", "format": "cell-based, human", "details": "PDGF-AA activated HS5 cells, 24 hrs", "procedure": "(§2) Total RNA was extracted from cells using miRNeasy kits (Qiagen), and cDNA was prepared as described previously. Gene specific TaqMan Probes were obtained from Applied Bio system, Thermo-Fisher, USA. qRT-PCR was performed using an ABI Quant Studio real-time PCR.\nas §1"}, "[4]": {"assay": "Particle size distribution (PSD)", "format": "physicochemical", "details": "wet method, water", "procedure": "About 15 mg of sample was pre-dispersed using 1 mL of water. After mixing completely, PSD was analyzed with the parameters in Table below."}, "CYP3A4 [5]": {"biological_target": "T1, CYP3A4 (Homo sapiens, UniProt P08684)", "T1 construct": "in the presence of human liver microsomes; from tissue; host or cells: human liver microsomes", "T1 sequence (P08684 whole entry, canonical isoform)": "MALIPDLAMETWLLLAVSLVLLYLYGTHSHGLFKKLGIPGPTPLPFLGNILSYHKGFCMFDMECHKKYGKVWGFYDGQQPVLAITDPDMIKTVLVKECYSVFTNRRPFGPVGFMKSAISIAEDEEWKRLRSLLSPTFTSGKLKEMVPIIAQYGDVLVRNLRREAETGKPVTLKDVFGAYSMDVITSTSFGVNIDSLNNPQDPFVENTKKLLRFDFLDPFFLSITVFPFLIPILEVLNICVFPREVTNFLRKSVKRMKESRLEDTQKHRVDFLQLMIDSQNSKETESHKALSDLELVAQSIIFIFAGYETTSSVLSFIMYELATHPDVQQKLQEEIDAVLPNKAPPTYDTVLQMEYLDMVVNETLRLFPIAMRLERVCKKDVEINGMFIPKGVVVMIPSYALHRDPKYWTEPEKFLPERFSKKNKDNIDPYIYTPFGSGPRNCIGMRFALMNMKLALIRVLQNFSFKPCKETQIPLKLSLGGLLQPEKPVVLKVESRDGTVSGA", "assay": "Drug-substrate based CYP inhibition, 3A4", "format": "in vitro ADME", "details": "human liver microsomes", "procedure": "(§3) IVMT-Rx-4 was incubated with selective probe substrates of each CYP isoform in the presence of human liver microsomes. The formation of metabolite was quantified using LC-MS/MS methods. The extent of inhibition was assessed by calculating the remaining enzyme activity and percent inhibition based on analyte-to-internal standard area ratios, using the following equations:\n(§4) Area Ratio = Peak AreaAnalyte / Peak AreaInternal Standard\n(§5) Remaining Activity (%) = Area Ratiotest compound / Area Ratiovehicle ×100\n(§6) Inhibition (%) = 100 ̶ Remaining Activity (%)"}, "PDGF-AA": {"tested_on": "PDGF-AA", "assay": "PDGF-AA mRNA expression by qRT-PCR in PC cells", "format": "cell-based, human", "details": "24 hrs", "procedure": "as §2\nFig. 2. […] NF-κB activity was measured by absorbance at 450 nm (n = 3 ± SD; * p < 0.05). […] C) PDGF-AA protein levels were determined in the three PC cell line-derived conditioned media by ELISA. In both panels: n = 3 ± SD; * p < 0.05."}, "[6]": {"tested_on": "CYP 1A2, 2A6, 2B6, 2C8, 2C9, 2C19, 2D6, 2E1, 3A4_M, 3A4_T (the others)", "assay": "Drug-substrate based CYP inhibition, other isoforms of the panel", "format": "in vitro ADME", "details": "human liver microsomes; isoforms of the panel not given", "procedure": "as §3, §4, §5, §6"}, "[7]": {"tested_on": "CYP1A2, 2A6, 2B6, 2C8, 2C9, 2C19, 2D6 (the other isoforms of the panel)", "assay": "Drug-substrate based CYP inhibition, other isoforms of the panel", "format": "in vitro ADME", "details": "human liver microsomes; isoforms of the panel not given; read-out: Drug-substrate based CYP Inhibition, others", "procedure": "as §3, §4, §5, §6"}, "PC3-ML-Luc cells": {"tested_on": "PC3-ML-Luc cells", "assay": "Combination and survival study, PC3-ML-Luc model", "format": "in vivo", "details": "PC3-ML-Luc in athymic nude mice, day 14, IVMT-Rx-4 30 mg/kg and/or Docetaxel 5 mg/kg 3X a week for two weeks", "procedure": "Both syngeneic (C57BL/6) and athymic nude mice were used for survival studies. Tumor cells (RM1-BM-Luc or PC3-ML-Luc) were injected intracardially in a cohort of 40 animals. […] In the combination groups, both regimens were administered 3X a week for two-weeks at the same dose as a single therapy. Animals were imaged periodically and maintained until euthanization was required.\nFig. 5. […] A and B) RM1-BM-Luc (A) or PC3-ML-Luc (B) cells were implanted I.C. in C57BL/6 and athymic nude mice, respectively. […] BLI images were used to detect bone metastases (the percentage incidence of bone metastases in animals was calculated at a single time point, day 14). Values are presented at the bottom panel of the respective group (red, number of animals positive for metastasis and black, total number of experimental animals). C and D) Animals were kept until mandated euthanasia based on IACUC guidelines, considered as disease associated death. The Kaplan–Meier survival curves were generated using GraphPad in both models as described in (A) and (B), respectively. E and F) Log-rank test was performed and values between different experimental groups are presented."}, "PXR": {"biological_target": "T2, PXR (Homo sapiens, UniProt O75469)", "T2 construct": "expressed in transfected cells; host or cells: DPX2 cells", "T2 sequence (O75469 1-434)": "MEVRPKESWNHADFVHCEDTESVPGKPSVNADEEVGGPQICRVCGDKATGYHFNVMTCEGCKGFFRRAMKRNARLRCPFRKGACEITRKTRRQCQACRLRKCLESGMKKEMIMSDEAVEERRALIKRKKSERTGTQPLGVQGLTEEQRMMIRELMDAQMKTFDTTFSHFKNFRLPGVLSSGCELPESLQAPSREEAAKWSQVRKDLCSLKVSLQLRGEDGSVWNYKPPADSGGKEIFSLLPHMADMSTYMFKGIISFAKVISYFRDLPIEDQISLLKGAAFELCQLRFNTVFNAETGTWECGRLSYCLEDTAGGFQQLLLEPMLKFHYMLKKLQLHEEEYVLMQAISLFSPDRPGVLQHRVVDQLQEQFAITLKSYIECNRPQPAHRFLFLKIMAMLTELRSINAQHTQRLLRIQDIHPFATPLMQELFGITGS", "assay": "PXR assay using DPX2 cells", "format": "cell-based", "procedure": "DPX2 cells were initially cultured in T-75 flasks and maintained at 37°C in a humidified incubator with 5% CO2 and 95% relative humidity. Cells were allowed to reach 70-80% confluence prior to subculture. Next, cells were transferred to a culture plate and incubated for an additional 24 hours to allow for attachment and recovery prior to treatment. […] Cell viability and luciferase activity were measured using the CellTiter-Fluor™ Cell Viability Assay and One-GloTM Luciferase Assay System, respectively. Luciferase activity was normalized to viable number and fold activation of PXR was calculated using the following equation: […]"}, "CYP3A4 [8]": {"biological_target": "T1, CYP3A4", "assay": "Time dependent CYP inhibition (TDI)", "format": "in vitro ADME", "details": "human liver microsomes, with or without NADPH", "procedure": "Then, the specific CYP3A4 substrate was added, and aliquots were collected at various time points. Samples were then diluted with ultra-pure water and analyzed by LC-MS/MS. Area ratio and remaining Activity (%) were calculated as above and IC50 values was calculated using Excel XLfit 5.3.1.3."}}, "note": "Entries after “also recorded” stand apart in the source; their conditions may differ.", "data": [{"molecule": "Cc1cc(NC(=O)CCc2nnc(-c3ccccc3)o2)c(C)cc1N", "note": "[IVMT-Rx-4]", "values": [{"measurement": "cytotoxicity to tester strains in Mini-Ames assay", "setting": "[1]; 1.5 to 1000 μg/well", "value": "No obvious cytotoxicity"}, {"measurement": "Mini-Ames Assay (2-strain option: TA98 & TA100)", "setting": "[1]", "value": "Weakly positive for 2 strains"}, {"measurement": "CXCL5 protein level", "setting": "CXCL5 [2]", "value": "significantly decreased"}, {"measurement": "CXCL5 mRNA level", "setting": "CXCL5 [3]", "value": "significantly decreased"}, {"measurement": "Dv [90], average value", "setting": "[4]", "value": 58.6, "unit": "μm"}, {"measurement": "IC50", "setting": "CYP3A4 [5]", "value": "~10", "unit": "µM"}, {"measurement": "PDGF-AA levels in mda-9 knockout clones", "setting": "PDGF-AA; PC3-ML mda-9 KO and ARCaP-M mda-9 KO", "value": "did not further reduce PDGF-AA levels"}, {"measurement": "PDGF-AA mRNA level", "setting": "PDGF-AA; PC3-ML, ARCaP-M and C4–2B cells, 25 μM or 50 μM", "value": "decreased PDGF-AA"}, {"measurement": "Drug-substrate based CYP Inhibition, others", "setting": "[6]", "value": "no inhibitory effects"}, {"measurement": "IC50", "setting": "[7]", "value": "> 10", "unit": "µM"}, {"measurement": "bone metastases, Incident/Total number tested", "setting": "PC3-ML-Luc cells", "value": "1/8"}, {"measurement": "PXR assay", "setting": "PXR", "value": "No induction"}, {"measurement": "Time-dependent inhibition (TDI), CYP3A4", "setting": "CYP3A4 [8]", "value": "no time-dependent inhibition; also recorded: No TDI"}]}]}
